Laboratory results as given in patent US20090047214A1, “Novel methylation marker” (OncoMethylome Sciences S.A., priority 2006, published 2009).

Columns and labels:
[1] = test system: MCF-7 cells (unmethylated WRN promoter); experiment: Apoptosis by flow cytometry; assay type: cell-based, human; conditions: MCF-7, WRN unmethylated
Protocol: (§1) The percentage of apoptotic cells was determined by flow cytometry using Vybrant® Apoptosis Assay Kit #4-YO-PRO®-1/propidium iodide (Molecular Probes/Invitrogen). Briefly, cells were washed twice with ice cold PBS and resuspended in PBS containing YO-PRO®-1/propidium iodide. Apoptotic cells were identified by flow cytometry after 20 min of incubation. Cytogenetic assay was performed as previously described (Herranz et al., 2006) analyzing one-hundred metaphases for each experimental condition.

[2] = test system: MDA-MB-231 cells (WRN promoter hypermethylation); experiment: Apoptosis by flow cytometry; assay type: cell-based, human; conditions: MDA-MB-231, WRN hypermethylated; increasing concentrations
Protocol: as §1

[3] = test system: U937 cells (WRN promoter hypermethylation); experiment: Apoptosis by flow cytometry; assay type: cell-based, human; conditions: U937, WRN hypermethylated; increasing concentrations
Protocol: as §1

[4] = test system: lymphoblastoid cell line from a WS patient (WS-/-); experiment: Apoptosis by flow cytometry; assay type: cell-based, human; conditions: WS patient lymphoblastoid cells, positive control
Protocol: (§2) The eleven human cancer cell lines examined in this study were obtained from the American Type Culture Collection (ATCC) (Rockland, Md., USA) and the German Collection of Microorganisms and Cell Cultures (DSMZ, Braunschweig, Germany). The cell lines represented three different types of malignancies, colon (HCT-116, COLO-205), breast (MCF-7, MDA-MB-468, MDAMB-231) and leukaemia (HL-60, KG1a, U937, REH, Jurkat, K562). Cell lines were maintained in appropriate media and treated with 1 μM 5-aza-2′-deoxycytidine (Sigma) for 3 days to achieve demethylation, as previously described (Herman et al., 1998; Ropero et al., 2004). WS−/− cells (AG11395) were obtained from the Coriel Cell Repositories (Camden, N.J., USA). The collection of primary tumor samples analyzed has been described elsewhere (Esteller et al., 2001; Ropero et al., 2004).
as §1

[5] = test system: WRN-transfected MDA-MB-231 cells; experiment: Apoptosis by flow cytometry; assay type: cell-based, human; conditions: MDA-MB-231 transfected with WRN
Protocol: as §1
(§3) The WRN coding sequence corresponding to the cDNA from a BLCL lymphoblastoid-EBV immortalized cell line was amplified by PCR and directly cloned into the pGEM-T Easy Vector (Promega, Winsconsin USA). The WRN insert was subcloned into the pEGFP-N1 expression vector (Invitrogen) and confirmed by sequencing. For transfection experiments we used the pEGFP-N1 vector containing the WRN gene, or the pEGFP-N1 empty vector. Transfection of MDA-MB-231 and U937 cells was performed by electroporating […] in 0.8 ml PBS with 40 μg of the vector at 250 V and 975 μF. After electroporation, cells were washed with PBS and seeded with 10^6 cells/ml in fresh medium containing 20% FBS. Transfected cells were selected by the addition of G418 (600 μg/ml).

[6] = test system: WRN-transfected U937 cells; experiment: Apoptosis by flow cytometry; assay type: cell-based, human; conditions: U937 transfected with WRN
Protocol: as §1, §3

[7] = test system: lymphoblastoid cells from a WS patient; experiment: Cytogenetic chromosomal breakage analysis; assay type: cell-based, human; conditions: metaphases
Protocol: as §2, §1

[8] = test system: HL60 cells (unmethylated WRN promoter); experiment: Cytogenetic chromosomal breakage analysis; assay type: cell-based, human; conditions: metaphases
Protocol: as §1

[9] = test system: MCF-7 cells (unmethylated WRN promoter); experiment: Cytogenetic chromosomal breakage analysis; assay type: cell-based, human; conditions: MCF-7, WRN unmethylated; metaphases
Protocol: as §1

[10] = test system: MDA-MB-231 cells (WRN aberrant methylation); experiment: Cytogenetic chromosomal breakage analysis; assay type: cell-based, human
Protocol: as §1

[11] = test system: WRN-transfected MDA-MB-231 cells; experiment: Cytogenetic chromosomal breakage analysis; assay type: cell-based, human; design: dose or concentration left out as unconfirmed
Protocol: as §1, §3

[12] = test system: primary colorectal tumors; experiment: Overall survival of colorectal cancer patients treated with irinotecan, by WRN methylation status (Kaplan-Meier); assay type: in vivo, human; conditions: WRN methylated colon tumors (n=45)
Protocol: Contingency tables were analyzed by Fisher's exact test. Overall survival curves were estimated by the Kaplan-Meier method and were compared with the use of the log-rank test. All statistical analyses were performed using the SPSS version 10.1 program (SPSS Inc, Chicago, Ill.).

[13] = test system: WRN RNA transcript and protein; experiment: Reactivation of WRN expression in WRN-hypermethylated cancer cell lines (RT-PCR, western blot, immunofluorescence); assay type: cell-based, human; conditions: HCT-116, COLO-205, MDA-MB-231 and U937 cell lines; 1 μM for 3 days
Protocol: as §2
RNA was isolated using TRIzol (Life Technologies, Gaithersburg, Md., USA). 2 μg of RNA was reverse-transcribed using SuperScript II reverse transcriptase (Gibco/BRL) and amplified using specific primers for WRN (forward: 5′-GCATGTGTTCGGAAGAGTGTTT-3-(SEQ ID. NO: 6), reverse: 5′-TGACATGGAAGAAACGTGGAA-3 (SEQ ID. NO: 7)) and for GAPDH. […] Cell lysates for protein analysis were prepared and analyzed by western blotting using the WRN antibody ab200 (Rabbit Polyclonal, Abcam). […]

[14] = test system: WRN-associated exonuclease activity in U937 cells; experiment: Exonuclease activity assay in WRN-immunoprecipitated cell extracts; assay type: cell-based, human; conditions: 1 μM for 3 days
Protocol: as §2
The exonuclease enzymatic activity was measured as previously described (Brosh et al., 2001). […] The digestion products of these reactions were separated on 15% denaturing polyacrylamide gels, visualized using a PhosphorImager (Molecular Dynamics), and quantitated using ImageQuant software (Molecular Dynamics).

With `CC[C@@]1(O)C(=O)OCc2c1cc1n(c2=O)Cc2cc3ccccc3nc2-1` [camptothecin] as the molecule, how does the induction of apoptosis [1] read?
Its induction of apoptosis is “markedly resistant”.

And the induction of apoptosis [2]?
Its induction of apoptosis is “optimal inductors of apoptosis”.

And the induction of apoptosis [3]?
The induction of apoptosis was “optimal inductors of apoptosis”.

And the induction of apoptosis [4]?
Its induction of apoptosis is “same phenomena”.

What about the induction of apoptosis [5] of the same molecule?
Its induction of apoptosis is “resistant to the apoptosis”.

What about the induction of apoptosis [6] of the same molecule?
Its induction of apoptosis is “resistant to the apoptosis”.

And the chromosomal breakage [7]?
Its chromosomal breakage is “extremely sensitive”.

And the chromosomal breakage [8]?
The chromosomal breakage was “minimal chromosomal breakage”.

And the chromosomal breakage [9]?
Its chromosomal breakage is “minimal chromosomal breakage”.

And the chromosomal breakage ([10]; MDA-MB-231, WRN methylated, metaphases)?
Its chromosomal breakage is “extremely sensitive”.

What about the chromosomal breakage ([11]; MDA-MB-231 transfected with WRN, metaphases) of the same molecule?
Its chromosomal breakage is “acquired a resistance”.

With `CCc1c2c(nc3ccc(OC(=O)N4CCC(N5CCCCC5)CC4)cc13)-c1cc3c(c(=O)n1C2)COC(=O)[C@]3(O)CC` [irinotecan] as the molecule, how does the “median time to the death of the patient” value [12] read?
Its value is 39.4 months.

How did the induction of apoptosis [1] turn out when `CO[C@@]12[C@H](COC(N)=O)C3=C(C(=O)C(C)=C(N)C3=O)N1C[C@@H]1N[C@@H]12` [mitomycin C] was run?
Its induction of apoptosis is “markedly resistant”.

And the induction of apoptosis [2]?
Its induction of apoptosis is “optimal inductors of apoptosis”.

What about the induction of apoptosis [3] of the same molecule?
The induction of apoptosis was “optimal inductors of apoptosis”.

What about the induction of apoptosis [4] of the same molecule?
The induction of apoptosis was “same phenomena”.

And the induction of apoptosis [5]?
The induction of apoptosis was “resistant to the apoptosis”.

What about the induction of apoptosis [6] of the same molecule?
Its induction of apoptosis is “resistant to the apoptosis”.

What about the chromosomal breakage ([10]; MDA-MB-231 (empty vector), 50 mg/ml) of the same molecule?
The chromosomal breakage was “massive breakage”.

And the chromosomal breakage ([11]; MDA-MB-231 transfected with the WRN gene)?
The chromosomal breakage was “resistance to the genome damage”.

With `Nc1ncn([C@H]2C[C@H](O)[C@@H](CO)O2)c(=O)n1` [5-aza-2′-deoxycytidine] as the molecule, how does the “expression of WRN RNA transcript and protein” value [13] read?
Its value is “restored the expression”.

What about the WRN-associated exonuclease activity [14] of the same molecule?
The WRN-associated exonuclease activity was “significant increase”.
